Source: patent US20230321012A1 (priority 2021, published 2023)
Several values for one entry are separate records, joined by “and”; a condition that tells them apart may be missing. Identical values can stand only once.

Assays:
[1] = test system: polyamine transport in T cells (CD4+ and CD4- lymphocytes, whole human blood); experiment: Ex vivo blood-based PD bioassay: C5 (fluorescent spermine) uptake into stimulated T cells by FACS; format: cell-based
Experimental: To evaluate the target engagement activity of AMXT 1501 after oral administration in human patients, an ex vivo PD assay assessing lymphocyte spermine uptake and inhibition of uptake by AMXT 1501 was developed. Briefly, uptake of a fluorescent-labeled spermine analog conjugate (Fl-Spm, Compound 5, C5, Annereau, J. P., et al., A fluorescent biomarker of the polyamine transport system to select patients with AML for F14512 treatment. Leuk Res. 2010 October; 34(10):1383-9) was assayed by fluorescence-activated cell sorting (FACS) analysis in CD4+ and CD4^− T cells in human blood samples stimulated with anti-CD3+ and anti-CD28+ antibodies.
Polyamine uptake in blood lymphocytes (CD4^+ or CD8^+ T cells) was measured at the same time points as the PK levels for AMXT 1501 were measured. Comparisons were made between uptake in the pre-treatment sample and samples taken over time following dosing.
Pharmacodynamic Bioassay. The purpose of this whole blood assay was to quantify the inhibition of polyamine transport in T cells in human subjects receiving AMXT 1501. Collected whole blood from subjects receiving AMXT 1501 was diluted with serum-free media and stimulated with anti-CD3 (T cell receptor engagement) and anti-CD28 (co-stimulatory signal) to drive T cell activation and proliferation for a total of three days. During the last 12-18 hours of culture, a fluorescently-labeled spermine analog (Fl-Spm, Compound 5, C5) was added to the in vitro culture to monitor polyamine uptake into cells. The functional activity (e.g., inhibitory effect) of AMXT 1501 on C5 uptake by T cells was then determined using flow cytometry by measuring the frequency and median fluorescence intensity (MFI) of C5 in T cells. Activation and proliferation of T cells is required for the uptake of C5; however, in the presence of high concentrations of AMXT 1501 in vitro, C5 uptake is inhibited despite active proliferation of T cells. Therefore, a whole blood sample spiked with high levels of AMXT 1501 prior to culture will be used as a positive control for each subject in this assay. […]

[2] = test system: four tumor cell lines; settings: average, growth of four cell lines in culture; read-out: in vitro EC50 against cancer cells; cited from earlier work
[3] = Clinical plasma pharmacokinetics of oral DFMO (NCT03536728); format: in vivo; settings: human
Description: Clinical Trial Outline. […] All solid tumor types are eligible for the trial. […] DFMO was delivered orally twice daily in gel capsules.

[4] = MALDI-FTICR imaging quantitation of DFMO in whole-body sections of Th-MYCN mice; format: in vivo, mouse; settings: for concentration at 96 h: male, Th-MYCN, mouse
Experimental: Male Th-MYCN mice, approximately 5-6 weeks of age, with spontaneous neuroblastoma tumor development commenced treatment according to Table 6.1 when tumors were approximately 5 mm in size. […] Time point: three treatments, cull 24 hours after last treatment in the morning.
Sample Preparation. Animals were euthanized on the morning of the 4th day, after three days of treatment and shaved, and then the carcasses were frozen. Tissues stored at −80° C. were placed inside the cryostat. The temperature of the cryostat was maintained around −20° C. and −40° C. 20-am tissue sections in the sagittal plane going through the left eye were obtained for each carcass. Tissue sections were mounted directly on indium tin oxide (ITO) slides.
Tissue sections on ITO slides were placed in a desiccator for 15 minutes before matrix deposition. An image of the slides was then acquired with a scanner to synchronize positions of the tissue sections with the target of the laser.
Dilution series of the test items were prepared in water from the stock solutions. […] A spot of pure solvent was added as a negative control. Slides were then placed in a desiccator for 15 minutes before MALDI matrix deposition. The control liver tissue consisted of a liver homogenate spiked with an olanzapine standard at 40 g/g of tissue. Sections of the liver homogenate were prepared and added on each ITO slide in order to monitor the signal of the FTICR through the different acquisitions and thus validate the comparison between slides.
For AMXT 1501, 2,5-dihydroxybenzoic acid (DHB) at 40 mg/ml in 1:1 MeOH/H2O with 1% trifluoroacetic acid (TFA) and 25 nM of ^13C4-AMXT 1501 was sprayed on the samples with an automatic sprayer (TM-Sprayer, HTX-Imaging).
The mass spectrometry imaging (MSI) acquisitions were performed using the parameters in Table 6.2 with a data reduction parameter set at 95%. MSI data were acquired and analyzed with FlexImaging 4.1 (Bruker Daltonics), Data Analysis 4.0 (Bruker Daltonics) and Multimaging™ 1.2.2 (ImaBioTech).
Intensity scales representing the molecular signal were adjusted for each image to discriminate the noise from the molecular signal but also to give the best visualization of the signal across the sections. […] Convolution step was performed on the original images using a normalized uniform kernel, which averages the values around a position. The kernel size was manually optimized for the analysis, minimizing the background noise. Based on the MSI data set on the tissue sections and the dilution series, the quantitation of the test items was performed with the IS approach. A correlation between the calibration curve and the signal obtained on the tissues was performed in order to determine the concentration of the test items per histological structure in g/g of tissue and μM.

[5] = COMBO (1% DFMO + AMXT 1501 2.5 mg/kg SC), mice 284, 286, 96 h, 2.5 mg/kg
[6] = DFMO alone 1% in drinking water, mice 049, 082, 96 h

Compound: CCCCCCCCCCCCCCCC(=O)NCCCC[C@@H](N)C(=O)NCCCNCCCCNCCCN [AMXT 1501, D-lys(palmitoyl)-spermine]
- EC50 ([1]; Homo sapiens, T-cell, read-out: ED50, inhibition of fluorescent-labeled spermine uptake): ~75 nM
- ex vivo target engagement activity in patient whole blood ([1]; several Part 2 Cohort 3 patients, Day 7-8, oral AMXT 1501 dicaprate, preliminary): sustained AMXT 1501 target engagement activity
- concentration of maximal fluorescent-labeled spermine uptake inhibition ([1]; whole human blood, absence of DFMO): 250 nM
- EC50 [2]: 51 nM

Compound: NCCCC(N)(C(=O)O)C(F)F (stereo not drawn) [DFMO, difluoromethylornithine]
- AUC ([3]; 500 mg/day split BID, Day 28, n=14): 11400 ng·h/mL
- Cmax ([3]; 7-day repeat dosing of 1000 mg split BID, Cohort 3, n=6): 4440 ng/mL
- DFMO in Intestine wall ([4]; COMBO (1% DFMO + AMXT 1501 2.5 mg/kg SC), mice 284, 286, 96 h): 6156 µg/g
- DFMO in Cardiac blood [4, 5]: 20.9 µg/g
- DFMO in Eye [4, 5]: 49.3 µg/g
- DFMO in Intestine contents [4, 5]: 8702 µg/g and 11264 µg/g
- DFMO in Liver [4, 5]: 33.0 µg/g
- DFMO in Lung [4, 5]: 43.1 µg/g
- DFMO in Myocardium [4, 5]: 26.2 µg/g
- DFMO in Cardiac blood [4, 6]: 16.5 µg/g
- DFMO in Eye [4, 6]: 28.8 µg/g
- DFMO in Intestine contents [4, 6]: 3487 µg/g and 2267 µg/g
- DFMO in Kidney [4, 6]: 133 µg/g
- DFMO in Liver [4, 6]: 28.5 µg/g
- DFMO in Lung [4, 6]: 24.8 µg/g
- DFMO concentration in tumor ([4]; DFMO only treatment group): 35 μg/g and 192 μM
- tumor DFMO levels ([4]; MYCN mice after overnight drinking of 1% DFMO orally): 165 to 192 µM
- DFMO concentration in tumor ([4]; combination treatment group): 30 μg/g and 165 μM
- tumor DFMO concentration versus Ki ([4]; combination treatment group): 4.2 times
- concentration at 96 h ([4]; brown fat, oral, 40 mg/day, DFMO in brown fat): ~25000 ng/g
- concentration at 96 h ([4]; brown fat, oral, 1 % in drinking water, DFMO in Brown fat, DFMO alone 1% in drinking water, mice 049, 082, 96 h): 22600 ng/g
- concentration at 96 h ([4]; brown fat, sc, 2.5 mg/kg, DFMO in Brown fat, COMBO (1% DFMO + AMXT 1501 2.5 mg/kg SC), mice 284, 286, 96 h): 27500 ng/g
- concentration at 96 h ([4]; cardiac blood, oral, 40 mg/day, DFMO in cardiac blood, combination and single administration regimens): 16000 to 35000 ng/g
- concentration at 96 h ([4]; cardiac blood, oral, 1 % in drinking water, DFMO in Cardiac blood, DFMO alone 1% in drinking water, mice 049, 082, 96 h): 27800 ng/g
- concentration at 96 h ([4]; cardiac blood, sc, 2.5 mg/kg, DFMO in Cardiac blood, COMBO (1% DFMO + AMXT 1501 2.5 mg/kg SC), mice 284, 286, 96 h): 35400 ng/g
- concentration at 96 h ([4]; eye, oral, 1 % in drinking water, DFMO in Eye, DFMO alone 1% in drinking water, mice 049, 082, 96 h): 33000 ng/g
- concentration at 96 h ([4]; eye, sc, 2.5 mg/kg, DFMO in Eye, COMBO (1% DFMO + AMXT 1501 2.5 mg/kg SC), mice 284, 286, 96 h): 92100 ng/g
- concentration at 96 h ([4]; intestine wall, oral, 1 % in drinking water, DFMO in Intestine wall, DFMO alone 1% in drinking water, mice 049, 082, 96 h): 803000 ng/g
- concentration at 96 h ([4]; kidney, oral, 1 % in drinking water, DFMO in Kidney, DFMO alone 1% in drinking water, mice 049, 082, 96 h): 77600 ng/g
- concentration at 96 h ([4]; liver, oral, 1 % in drinking water, DFMO in Liver, DFMO alone 1% in drinking water, mice 049, 082, 96 h): 36100 ng/g
- concentration at 96 h ([4]; liver, sc, 2.5 mg/kg, DFMO in Liver, COMBO (1% DFMO + AMXT 1501 2.5 mg/kg SC), mice 284, 286, 96 h): 44700 ng/g
- concentration at 96 h ([4]; lung, oral, 1 % in drinking water, DFMO in Lung, DFMO alone 1% in drinking water, mice 049, 082, 96 h): 48700 ng/g
- concentration at 96 h ([4]; lung, sc, 2.5 mg/kg, DFMO in Lung, COMBO (1% DFMO + AMXT 1501 2.5 mg/kg SC), mice 284, 286, 96 h): 64700 ng/g
- concentration at 96 h ([4]; myocardium, oral, 1 % in drinking water, DFMO in Myocardium, DFMO alone 1% in drinking water, mice 049, 082, 96 h): 10000 ng/g
- concentration at 96 h ([4]; myocardium, sc, 2.5 mg/kg, DFMO in Myocardium, COMBO (1% DFMO + AMXT 1501 2.5 mg/kg SC), mice 284, 286, 96 h): 28500 ng/g
- concentration at 96 h ([4]; oral, 40 mg/day, DFMO in eye, kidney, liver, lung, testis and thymus, range from testis to eye, both treatments): 14000 to 92000 ng/g
- concentration at 96 h ([4]; pancreas, sc, 2.5 mg/kg, DFMO in Pancreas, COMBO (1% DFMO + AMXT 1501 2.5 mg/kg SC), mice 284, 286, 96 h): 83000 ng/g
- concentration at 96 h ([4]; spleen, sc, 2.5 mg/kg, DFMO in Spleen, COMBO (1% DFMO + AMXT 1501 2.5 mg/kg SC), mice 284, 286, 96 h): 83600 ng/g
- concentration at 96 h ([4]; stomach contents, sc, 2.5 mg/kg, DFMO in Stomach contents, COMBO (1% DFMO + AMXT 1501 2.5 mg/kg SC), mice 284, 286, 96 h): 111000 ng/g
- concentration at 96 h ([4]; stomach wall, oral, 1 % in drinking water, DFMO in Stomach wall, DFMO alone 1% in drinking water, mice 049, 082, 96 h): 216000 ng/g
- concentration at 96 h ([4]; stomach wall, sc, 2.5 mg/kg, DFMO in Stomach wall, COMBO (1% DFMO + AMXT 1501 2.5 mg/kg SC), mice 284, 286, 96 h): 44500 ng/g
- concentration at 96 h ([4]; testis, oral, 1 % in drinking water, DFMO in Testis, DFMO alone 1% in drinking water, mice 049, 082, 96 h): 14500 ng/g
- concentration at 96 h ([4]; testis, sc, 2.5 mg/kg, DFMO in Testis, COMBO (1% DFMO + AMXT 1501 2.5 mg/kg SC), mice 284, 286, 96 h): 48200 ng/g
- concentration at 96 h ([4]; thymus, oral, 1 % in drinking water, DFMO in Thymus, DFMO alone 1% in drinking water, mice 049, 082, 96 h): 20900 ng/g
- concentration at 96 h ([4]; thymus, sc, 2.5 mg/kg, DFMO in Thymus, COMBO (1% DFMO + AMXT 1501 2.5 mg/kg SC), mice 284, 286, 96 h): 26700 ng/g
- concentration at 96 h ([4]; tumor, oral, 1 % in drinking water, DFMO in Tumor, DFMO alone 1% in drinking water, mice 049, 082, 96 h): 35100 ng/g
- concentration at 96 h ([4]; tumor, sc, 2.5 mg/kg, DFMO in Tumor, COMBO (1% DFMO + AMXT 1501 2.5 mg/kg SC), mice 284, 286, 96 h): 30400 ng/g
